Laboratory results published in patent US7427591B2, “Suppression of immune response via inhibition of cathepsin S” (Massachusetts Institute of Technology, priority 1996, dated 2008).

Columns and labels:
[1] = test system: Ii processing in HOM2 cells; experiment: 35S pulse/chase of HOM2 cells, Tu36 immunoprecipitation, SDS-PAGE: Ii processing and SDS-stable class II peptide complexes; assay type: cell-based, human; settings: E64D
Text: Lysates were precleared with protein A-agarose.
Samples were eluted with SDS-PAGE sample buffer.

multiple sclerosis = experiment: Treating multiple sclerosis in a human; settings: intravenous injection once a day, 500 mg/70 kg body weight
[2] = test system: Ii processing in HOM2 cells; settings: leupeptin; Neefjes and Ploegh 1992; cited from earlier work
pemphigus vulgaris = experiment: Treating pemphigus vulgaris in a human; assay type: in vivo; settings: topical ointment 50 mg/gm, daily
Method: The dose is 50 mg/gm of ointment and is applied daily to the affected area.

cathepsin B = cathepsin B (Homo sapiens, UniProt P07858); experiment: Active site labeling of cysteine proteases with Cbz-[125I]-Tyr-Ala-CN2 in HOM2 cells: cathepsin B; assay type: cell-based
Text: SIDS, 1% Triton X-100 on ice.

cathepsin S = cathepsin S (Homo sapiens, UniProt P25774); experiment: Active site labeling of cysteine proteases with Cbz-[125I]-Tyr-Ala-CN2 in HOM2 cells: cathepsin S; assay type: cell-based
human cathepsin H = target: T1, human cathepsin H (Homo sapiens, UniProt P09668); experiment: Inhibition of purified human cathepsin H; assay type: biochemical; settings: purified enzyme
T1 construct: purchased Calbiochem-Novabiochem Corp., San Diego, Calif
T1 sequence (P09668 98-335): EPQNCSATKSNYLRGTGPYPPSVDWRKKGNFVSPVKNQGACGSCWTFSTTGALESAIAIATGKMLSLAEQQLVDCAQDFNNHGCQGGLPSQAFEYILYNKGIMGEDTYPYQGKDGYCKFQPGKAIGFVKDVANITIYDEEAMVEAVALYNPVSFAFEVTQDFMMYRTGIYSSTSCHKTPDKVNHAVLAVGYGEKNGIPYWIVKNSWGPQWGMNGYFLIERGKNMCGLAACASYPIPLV
Text: Purified human cathepsin H (obtained from Calbiochem-Novabiochem Corp., San Diego, Calif.) was not inhibited with LHVS nor did it display any proteolytic activity against immunoprecipitated αβIi, implying that cathepsin H is not an essential protease for Ii degradation.

cathepsin D = cathepsin D (Homo sapiens, UniProt P07339); settings: Alteri et al. 1993; cited from earlier work
cathepsin D, sequence (P07339 65-412, species assumed): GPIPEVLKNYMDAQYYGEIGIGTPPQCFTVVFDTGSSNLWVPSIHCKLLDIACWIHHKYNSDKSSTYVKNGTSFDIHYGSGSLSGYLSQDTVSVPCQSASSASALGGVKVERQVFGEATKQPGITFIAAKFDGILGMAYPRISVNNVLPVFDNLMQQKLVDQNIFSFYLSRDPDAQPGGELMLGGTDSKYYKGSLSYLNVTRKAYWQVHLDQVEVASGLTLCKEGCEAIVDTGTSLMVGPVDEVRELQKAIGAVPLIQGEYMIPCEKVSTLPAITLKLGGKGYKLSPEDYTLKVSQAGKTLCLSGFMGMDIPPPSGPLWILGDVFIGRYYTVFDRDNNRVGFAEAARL

cathepsin S, sequence (P25774 115-331): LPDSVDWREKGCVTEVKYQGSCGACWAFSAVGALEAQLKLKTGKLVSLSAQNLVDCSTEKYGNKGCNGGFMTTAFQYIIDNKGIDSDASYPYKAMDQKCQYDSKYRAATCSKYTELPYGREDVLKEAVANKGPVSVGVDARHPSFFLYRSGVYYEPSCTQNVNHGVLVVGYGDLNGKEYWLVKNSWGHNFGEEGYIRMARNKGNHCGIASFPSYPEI

Molecule: CCOC(=O)[C@H]1O[C@@H]1C(=O)N[C@@H](CC(C)C)C(=O)NCCC(C)C (relative stereo) [E64D]
- SDS-stable dimer formation [1]: decrease in SDS-stable dimer formation

Molecule: Leu-Arg-Met-vinylsulfone
- effect on multiple sclerosis (multiple sclerosis): alleviates the effects of multiple sclerosis

Molecule: CC(=O)N[C@@H](CC(C)C)C(=O)N[C@@H](CC(C)C)C(=O)N[C@H](C=O)CCCNC(=N)N [leupeptin]
- SDS-stable complexes (peptide-loaded αβ-dimers) [2]: decrease

Molecule: N-(carboxybenzyl)-Arg-Met-vinylsulfone
- effect on pemphigus vulgaris (pemphigus vulgaris): alleviates the effects of pemphigus vulgaris

Molecule: CC(C)C[C@H](NC(=O)N1CCOCC1)C(=O)N[C@H](/C=C/S(=O)(=O)c1ccccc1)CCc1ccccc1 [LHVS, morpholinurea-leucine-homophenylalanine-vinylsulfone phenyl]
- labeling of cathepsin B with Cbz-[125I]-Tyr-Ala-CN2 (cathepsin B; LHVS 1 nM): but not cathepsin B
- labeling of cathepsin B with Cbz-[125I]-Tyr-Ala-CN2 (cathepsin B; LHVS 5 nM): decreased, although some activity remained
- concentrations that specifically inhibit cathepsin S, leaving other cysteine proteases functionally active (cathepsin S): 1 to 5 nM
- labeling of cathepsin S with Cbz-[125I]-Tyr-Ala-CN2 (cathepsin S; LHVS 1 nM, 1 hour preincubation at 37° C.): effectively inhibited
- inhibition of purified human cathepsin H (human cathepsin H): not inhibited

Molecule: CC(C)[C@H](NC(=O)[C@H](Cc1ccccc1)C[C@H](O)[C@H](Cc1ccccc1)NC(=O)OC(C)(C)C)C(=O)N[C@@H](Cc1ccccc1)C(=O)N1CCOCC1 [CGP 53437]
- inhibits cathepsin D (potency range) (cathepsin D): nanomolar range
